What was measured:
Assay type in all cases: in vivo
Ratten = experiment: Sidman avoidance test (conditioned avoidance, lever press to postpone foot shock), rats; settings: Rattus norvegicus, compound given 30, 90 and 210 min before the test, total dose, read-out: Gesamtdosis, welche die Vermeidungs-Reaktionen vermindert
From the text: (§1) Die Verbindungen der Erfindung zeigen wertvolle pharmakologische Eigenschaften, in erster Linie neuroleptische Wirkungen. Diese können in Tierversuchen, vorzugsweise an Säugern, z.B. Mäusen, Ratten oder Affen, als Testobjekte, nachgewiesen werden. Die genannten Verbindungen können ihnen enteral oder parenteral, vorzugsweise oral oder subkutan, intravenös oder intraperitoneal, z.B. durch Steckkapseln oder in Form von Stärke enthaltenden Suspensionen bzw. wässerigen Lösungen, verabreicht werden. Die verwendete Dosis kann in einem Bereich von ungefähr zwischen 0,01 und 100 mg/kg/Tag, vorzugsweise ungefähr 0,05 und 10 mg/kg/Tag, insbesonder zwischen 0,1 und 5 mg/kg/Tag, liegen.
(§2) Die genannten neuroleptischen Eigenschaften können an ausgewachsenen Ratten oder Totenkopf-Aeffchen (squirrel monkeys) nachgewiesen werden. Die Tiere sind zur Betätigung eines Hebels trainiert, wodurch sie einem auf den Fuss verabreichten elektrischen Schock ausweichen können. Jeder Hebeldruck verschiebt den Schock um 30 Sekunden. Vergisst das Tier den Hebel innerhalb des genannten Zeitintervalls einmal zu drücken, so werden alle 15 Sekunden kurze (0,5 sec.) elektrische Schocks abgegeben, bis das Tier den Hebel wieder betätigt. […]

Totenkopf-Aeffchen = experiment: Extrapyramidal side effects and neurological symptoms observed in haloperidol-sensitised squirrel monkeys
From the text: Die bei den klassischen Neuroleptica bekannten extrapyramidalen Nebenwirkungen (ENW) lösen in Totenkopf-Aeffchen, welche vorher einer wiederholten antipsychotischen Behandlung unterworfen waren, charakteristische motorische Syndrome aus. Diese Bewegungsstörungen bestehen aus dystonischen Kõrperhaltungen und dyskinetischen Bewegungen, welche besser den bei Menschen auftretenden ENW entsprechen, als dies die Katalepsie oder Zittern tut. So können potentielle extrapyramidale Nebenwirkungen, aber gegebenenfalls auch andere neurologische Symptome, z.B. Ptosis, durch Beobachtung von ausgewachsenen Totenkopf-Aeffchen (von einem Gewicht von 700-1200 g) beurteilt werden. Die Tiere werden einmal wöchentlich oder einmal in zwei Wochen mit Haloperidol (1,25 mg/kg) behandelt. Nach einer derartigen Behandlung von ungefähr 2-4 Monaten treten 1-6 Stunden nach der Verabreichung von Haloperidol offensichtliche dystonische Körperhaltungen und dyskinetische Bewegungen auf. Sonst können in anderen Zeitpunkten keine abnormalen Bewegungen der Affen festgestellt werden. Nach dem Auftreten von, durch Haloperidol hervorgerufenen Dyskinesien, wird die oben geschilderte Behandlungsweise abgebrochen. Die Tiere erhalten nachher lediglich alle 4-8 Wochen 1,25 mg/kg Haloperidol und sie werden als Kontrolltiere bei der Untersuchung von Verbindungen dieser Erfindung eingesetzt.
Die Affen werden in Intervallen von 2, 4 und 6 Stunden nach der Behandlung beurteilt. Die Versuche werden in verschlossenen Zellen, welche mit ferngesteuerten Video-Beobachtungsapparaten und mit einem einheitlichen Summton-Generator ausgerüstet sind, durchgeführt. Die Beurteilungen der Tiere werden durch zwei voneinander unabhängige Beobachter vorgenommen, welche keine Kenntnis von den verabreichten Verbindungen und vom Ziel des Versuchs haben. Während der neurologischen Untersuchungen werden die Affen von einer dritten Person behandelt. Zuerst werden die Tiere durch das Video-System beobachtet. Dann betreten die Beobachter die Versuchstelle und notieren die Reaktionen der Affen als "motorisch" (das Tier geht umher in der Zelle), "visuell" (eine offenbare Reaktion, jedoch kein Umhergehen) und "keine" (keine Reaktion). Es werden auch Aktivität, Köperhaltung, Zittern, vermehrter Speichelfluss und andere neurologische Symptome berücksichtigt. Besondere Beachtung wird dem Vorhandensein oder Abwesenheit von "bizarren", vorher genannten, distonischen Körperhaltungen und dyskinetischen Bewegungen gewidmet. Die die Tiere behandelnde Person nimmt dann den Affen aus der Zelle heraus. Dabei werden die Reaktionen des Affen auf die Annäherung der mit einem Handschuh geschützten Hand, auf die erste Berührung beim Anfassen undauf die Hemmnisse nach der Gefangennahme, separat aufgeschrieben. Die Vokalisation während der Gefangennahme wird auch beurtielt. Die Person, welche das Tier behandelt, wertet dann den Körpertonus und die Pupillengrösse aus und stellt fest, ob Ptosis vorhanden ist. Hat die vorhergehende Untersuchung nahegelegt, dass Katalepsie aufgetreten ist, so wird dieses Symptom ausgewertet. Der Affe wird zuerst, Kopf nach unten, auf den Boden, dann zum Zelleneingang und schliesslich in die Beobachtungszelle gestellt. Bleibt der Affe in allen diesen Stellungen mindestens 5 Sekunden im wesentlichen unbeweglich, so wird das Vorhandensein der Katalepsie bejaht. […]

[1] = system: Totenkopf-Aeffchen (squirrel monkeys); experiment: Sidman avoidance test (conditioned avoidance, lever press to postpone foot shock), monkeys; settings: Saimiri, in Primates, compound given 30, 90 and 210 min before the test, total dose, read-out: Gesamtdosis, welche die Vermeidungs-Reaktionen vermindert
From the text: as §1, §2

With `CN1CCN(C2=Nc3ccccc3Sc3nccn32)CC1` [Beispiel 1, 5-(4-Methylpiperazino)-imidazo[2,1-b][1,3,5]benzothia-diazepin] the minimal effective dose (Ratten) was ≤ 10 mg/kg, the “vermehrter Speichelfluss” value (Totenkopf-Aeffchen; in vivo) was “nicht festellbar” and the minimal effective dose [1] was ≤ 10 mg/kg.
`CN1CCN(C2=Nc3cc(Cl)ccc3Nc3ccccc32)CC1` [Clozapin] was tested, and the “dyskinetische Bewegungen / Dyskinesien” value (Totenkopf-Aeffchen; 10 mg/kg, monkeys rated 2, 4 and 6 h after treatment) was “nicht aufgetreten” and the “vermehrter Speichelfluss” value (Totenkopf-Aeffchen; monkeys rated 2, 4 and 6 h after treatment, doses as in the dyskinesia test) was “bei jedem untersuchten Affen”.
In the case of `O=C(CCCN1CCC(O)(c2ccc(Cl)cc2)CC1)c1ccc(F)cc1` [Haloperidol], the “dyskinetische Bewegungen / Dyskinesien” value (Totenkopf-Aeffchen; 0,625 mg/kg (low dose), monkeys rated 2, 4 and 6 h after treatment) was “an fünf Affen feststellbar” and the “dyskinetische Bewegungen / Dyskinesien” value (Totenkopf-Aeffchen; 1,25 mg/kg, monkeys rated 2, 4 and 6 h after treatment) was “schwere Dyskinesie”.

Reference: patent EP0042354A2, “Imidazobenzothiadiazepines, process for their preparation and pharmaceutical compositions containing them” (CIBA-GEIGY AG, priority 1980, dated 1981)
